Measured values as given in patent US20210214758A1, “METHODS AND TOOLS FOR DETERMINING CLONAL RELATEDNESS AND PREDICTING CLONAL TRAITS” (priority 2018, published 2021).

System: Klebsiella isolates
Experiment: Antibiotic susceptibility of Klebsiella clinical isolates per 7-SNP clonotype (Lookup Table 1; disk diffusion)
Assay type: cell-based, Klebsiella spp.
Protocol: In further embodiments, the Lookup Table is Lookup Table 1. The information contained in Lookup Table 1 below was obtained from urine specimens from patients with Klebsiella infections from several clinics within different regions of the United States. CT=clonotypes determined using a 7-SNP combination: phoE54; rpoB130; infB279; mdh315; phoE336; phoE354; and mdh429.
Next, antibiotic resistance was determined for all 387 Klebsiella isolates in the discovery set. Antibiotic testing was carried out according to the standard disk diffusion method as described in the Clinical and Laboratory Standards Institute (M100 Performance Standards for Antimicrobial Susceptibility Testing, 27th Edition, 2017). […] Since almost all Klebsiella isolates are known to be resistant to AMP and sensitive to IMI, TET is not used for treatment of urinary tract infections, and ESBL production is partially reflected in resistance to CTR, these antibiotics were not included for further analysis.
To aid in clinical decision-making and to translate clonotype information to treatment selection, Lookup Table 1 was generated. […] The information contained in Lookup Table 1 was obtained from urine specimens from patients with Klebsiella infections from several clinics within different regions of the United States. Indications of allowance or non-recommendation were determined based on a 20% resistance threshold to the indicated antibiotic; i.e., the antibiotic is recommended when more than 80% of the tested isolates within the indicated clonotype were susceptible to the indicated antibiotic, and was cautioned against when less than 80% of the isolates were susceptible to the antibiotic.

**Q.** `C[C@@H](O)[C@H]1C(=O)N2C(C(=O)O)=C(SCCN=CN)C[C@H]12` [IMI, imipenem] was tested. Which “susceptibility, %” value (CT 000) did it give?
**A.** 100%

**Q.** What about the “susceptibility, %” value (CT 001) of the same compound?
**A.** 100%

**Q.** And the “susceptibility, %” value (CT 010)?
**A.** 100%

**Q.** What about the “susceptibility, %” value (CT 011) of the same compound?
**A.** 100%

**Q.** What about the “susceptibility, %” value (CT 031) of the same compound?
**A.** 67%

**Q.** And the “susceptibility, %” value (CT 040)?
**A.** 75%

**Q.** What about the “susceptibility, %” value (CT 050) of the same compound?
**A.** 100%

**Q.** And the “susceptibility, %” value (CT 051)?
**A.** 100%

**Q.** What about the “susceptibility, %” value (CT 071) of the same compound?
**A.** 100%

**Q.** What about the “susceptibility, %” value (CT 100) of the same compound?
**A.** 100%

**Q.** And the “susceptibility, %” value (CT 110)?
**A.** 100%

**Q.** What about the “susceptibility, %” value (CT 111) of the same compound?
**A.** 100%

**Q.** What about the “susceptibility, %” value (CT 130) of the same compound?
**A.** 100%

**Q.** And the “susceptibility, %” value (CT 131)?
**A.** 98%

**Q.** What about the “susceptibility, %” value (CT 141) of the same compound?
**A.** 100%

**Q.** What about the “susceptibility, %” value (CT 150) of the same compound?
**A.** 99%

**Q.** What about the “susceptibility, %” value (CT 151) of the same compound?
**A.** 100%

**Q.** What about the “susceptibility, %” value (CT 160) of the same compound?
**A.** 100%

**Q.** What about the “susceptibility, %” value (CT 170) of the same compound?
**A.** 96%

**Q.** And the “susceptibility, %” value (CT 171)?
**A.** 97%

**Q.** And the “susceptibility, %” value (CT 200)?
**A.** 100%

**Q.** And the “susceptibility, %” value (CT 201)?
**A.** 100%

**Q.** What about the “susceptibility, %” value (CT 210) of the same compound?
**A.** 100%

**Q.** What about the “susceptibility, %” value (CT 211) of the same compound?
**A.** 100%

**Q.** And the “susceptibility, %” value (CT 230)?
**A.** 100%

**Q.** And the “susceptibility, %” value (CT 231)?
**A.** 100%

**Q.** And the “susceptibility, %” value (CT 240)?
**A.** 100%

**Q.** And the “susceptibility, %” value (CT 241)?
**A.** 100%

**Q.** What about the “susceptibility, %” value (CT 250) of the same compound?
**A.** 100%

**Q.** And the “susceptibility, %” value (CT 251)?
**A.** 100%

**Q.** What about the “susceptibility, %” value (CT 271) of the same compound?
**A.** 100%

**Q.** And the “susceptibility, %” value (CT 300)?
**A.** 100%

**Q.** And the “susceptibility, %” value (CT 301)?
**A.** 100%

**Q.** And the “susceptibility, %” value (CT 310)?
**A.** 100%

**Q.** What about the “susceptibility, %” value (CT 311) of the same compound?
**A.** 100%

**Q.** And the “susceptibility, %” value (CT 330)?
**A.** 100%

**Q.** What about the “susceptibility, %” value (CT 331) of the same compound?
**A.** 100%

**Q.** And the “susceptibility, %” value (CT 350)?
**A.** 100%

**Q.** And the “susceptibility, %” value (CT 351)?
**A.** 100%

**Q.** And the “susceptibility, %” value (CT 370)?
**A.** 100%

**Q.** And the “susceptibility, %” value (CT 371)?
**A.** 100%

**Q.** And the “susceptibility, %” value (CT 411)?
**A.** 100%

**Q.** And the “susceptibility, %” value (CT 450)?
**A.** 100%

**Q.** And the “susceptibility, %” value (CT 451)?
**A.** 100%

**Q.** What about the “susceptibility, %” value (CT 510) of the same compound?
**A.** 100%

**Q.** What about the “susceptibility, %” value (CT 511) of the same compound?
**A.** 100%

**Q.** What about the “susceptibility, %” value (CT 530) of the same compound?
**A.** 100%

**Q.** What about the “susceptibility, %” value (CT 531) of the same compound?
**A.** 100%

**Q.** And the “susceptibility, %” value (CT 550)?
**A.** 98%

**Q.** What about the “susceptibility, %” value (CT 551) of the same compound?
**A.** 75%

**Q.** What about the “susceptibility, %” value (CT 570) of the same compound?
**A.** 100%

**Q.** What about the “susceptibility, %” value (CT 571) of the same compound?
**A.** 100%

**Q.** And the “susceptibility, %” value (CT 611)?
**A.** 100%

**Q.** And the “susceptibility, %” value (CT 630)?
**A.** 100%

**Q.** And the “susceptibility, %” value (CT 650)?
**A.** 100%

**Q.** What about the “susceptibility, %” value (CT 651) of the same compound?
**A.** 100%

**Q.** And the “susceptibility, %” value (CT 670)?
**A.** 100%

**Q.** And the “susceptibility, %” value (CT 710)?
**A.** 100%

**Q.** What about the “susceptibility, %” value (CT 730) of the same compound?
**A.** 98%

**Q.** What about the “susceptibility, %” value (CT 731) of the same compound?
**A.** 100%

**Q.** And the “susceptibility, %” value (CT 750)?
**A.** 100%

**Q.** And the “susceptibility, %” value (CT 751)?
**A.** 100%

**Q.** And the “susceptibility, %” value (CT 771)?
**A.** 100%

**Q.** And the “susceptibility, %” value (CT Any Klebsiella spp.)?
**A.** 99%
